Test results reported in the NIST ThermoML archive (doi:10.1016/j.fluid.2010.11.026).

Details: Liquid, Closed cell (Static) method

CCCO [propan-1-ol]
Details	vapor or sublimation pressure [kPa]
334.53 K	21.9
342.07 K	31.2
349.12 K	42.9
353.96 K	52.7
357.95 K	62.4
361.25 K	71.4
364.3 K	80.7
367.51 K	91.6
370.44 K	102.7

CCO [ethanol]
Details	vapor or sublimation pressure [kPa]
317 K	21.9
325.12 K	32.5
330.28 K	41.3
335.45 K	52
339.58 K	62.3
342.32 K	70
345.79 K	80.9
348.45 K	90.2
351.31 K	101.4

CCCOC(C)=O [propyl ethanoate]
Details	vapor or sublimation pressure [kPa]
331.7 K	22.2
340.16 K	31.1
348.06 K	41.8
353.27 K	50.4
359.55 K	62.7
363.29 K	71
367.42 K	81.4
371.07 K	91.5
374.29 K	101.4
